The record followed here is US20220378923A1, “BET DEGRADER” (KYOWA KIRIN CO., LTD., priority 2019, published 2022).

Assay [1] concerns the target T1, interaction between BRD2 and E3 ligase DCAF16 (Homo sapiens, UniProt P25440).
T1 construct: expressed in transfected cells; host or cells: HEK293
Put plainly: Verification of BET-DCAF16 interaction, comparative test with known compounds (Test Example 8). The class given is cell-based. The conditions noted are these: test compound 1.0 μmol/L; HEK293 cells expressing Nluc-BRD2 and DCAF16-HaloTag; MLN4924 instead of bortezomib; substrate diluted 200-fold. On the procedure: Cultured HEK293 cells were washed with DPBS, no calcium, no magnesium (DPBS: Code No. 14190144, Thermo Fisher Scientific) and harvested using TrypLE™ Express Enzyme (1×), phenol red (TrypLE: Code No. 12605036, Thermo Fisher Scientific), and prepared to be 4.0×10^5 cells/mL in DMEM. A volume of 12 mL of the cell suspension was seeded in a Falcon® 100 mm×20 mm cell culture dish and cultured in a carbon dioxide gas incubator at 37° C. for 6 hours. For one dish, 12 μg of pFC27K_DCAF16, 0.12 μg of p FN31A_BRD2, 48 μL of FuGENE® HD Transfection Reagent (Code No. E2312, Promega) were added to 600 μL of Opti-MEM™ I Reduced Serum Medium, no phenol red (Opti-MEM: Code No. 11058021, Thermo Fisher Scientific) and mixed. The mixture was allowed to stand for 15 minutes and added to HEK293 cells. After 20 hours, the cells were washed with DPBS, no calcium, no magnesium, harvested from the dish using TrypLE, and then neutralized in DMEM. After centrifugation, the supernatant was discarded, and the cells were prepared to be 2.2×10^5 cells/mL using Opti-MEM containing 4% FBS. HaloTag® NanoBRET™ 618 Ligand contained in NanoBRET™ Nano-Glo® Detection System (Code No. N1662, Promega) and bortezomib as a proteasome inhibitor were added to be a 1000-fold dilution. In addition, a group was prepared to which DMSO was added instead of HaloTag® NanoBRET™ 618 Ligand. 90 μL of the cell suspension was seeded in CulturPlate-96 (Code No. 6005688, PerkinElmer), and allowed to stand in a carbon dioxide gas incubator at 37° C. for 30 minutes. A volume of 10 mmol/L of a solution of the test compound in DMSO was adjusted to be 100 μmol/L with Opti-MEM, 10 μL of the solution was added to each well, and then the mixture was allowed to stand in a carbon dioxide gas incubator at 37° C. for 2 hours. At this time, all the groups were prepared so that the final concentration of DMSO was 0.1 vol % including the group to which the test compound was not added. NanoBRET™ Nano-Glo® Substrate included in the NanoBRET™ Nano-Glo® Detection System was diluted 100-fold with Opti-MEM. After adding 25 μL of the dilution each and stirring for 30 seconds, measurement was performed with an Emission Filter of 460 nm and 620 nm using EnVision (PerkinElmer). The BRET ratio of 10 μmol/L for each test compound was calculated using the following formula. The experiment was performed by n=3 and the average value was calculated.
BRET ratio={(A/B)−(C/D)}×1000 • A: value at 620 nm filter of the well with addition of test compound and 618 Ligand • B: value at 460 nm filter of the well with addition of test compound and 618 Ligand • C: value at 620 nm filter of the well without addition of test compound or 618 Ligand • D: value at 460 nm filter of the well without addition of test compound or 618 Ligand
For comparison with the known comparative compound 1, the enhancement of the BET-DCAF16 interaction was verified by the same method as in test example 7. However, for the purpose of system optimization, bortezomib was changed to Neddylation inhibitor MLN4924 (Code No. HY-10484, MedChem Express), and the dilution ratio of NanoBRET™ Nano-Glo® Substrate was set to 200-fold. The BRET ratio of 1.0 μmol/L of each test compound was calculated, and the results are shown as in Table 23 below.

Assay [2] has as its system MYC mRNA expression in SU-DHL-4 cells. Put plainly: Suppressive effect on MYC mRNA expression (Test Example 2). The class given is cell-based, human. The conditions noted are these: test compound 100 nmol/L, 6 hours, qRT-PCR corrected by ACTB, GAPDH; for inhibition at 0.1 µM: Homo sapiens, HPRT1, read-out: Suppression Rate of MYC mRNA Expression (%); for Suppression Rate of MYC mRNA Expression (%): HPRT1. In short, it runs like this:
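SU-DHL-4 cells were treated for 6 h at 37 °C with compound (0.1% DMSO final). MYC mRNA was measured by TaqMan qRT-PCR and normalised to the geometric mean of ACTB, GAPDH and HPRT1. Suppression was calculated relative to untreated wells.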

T1 sequence (P25440 whole entry): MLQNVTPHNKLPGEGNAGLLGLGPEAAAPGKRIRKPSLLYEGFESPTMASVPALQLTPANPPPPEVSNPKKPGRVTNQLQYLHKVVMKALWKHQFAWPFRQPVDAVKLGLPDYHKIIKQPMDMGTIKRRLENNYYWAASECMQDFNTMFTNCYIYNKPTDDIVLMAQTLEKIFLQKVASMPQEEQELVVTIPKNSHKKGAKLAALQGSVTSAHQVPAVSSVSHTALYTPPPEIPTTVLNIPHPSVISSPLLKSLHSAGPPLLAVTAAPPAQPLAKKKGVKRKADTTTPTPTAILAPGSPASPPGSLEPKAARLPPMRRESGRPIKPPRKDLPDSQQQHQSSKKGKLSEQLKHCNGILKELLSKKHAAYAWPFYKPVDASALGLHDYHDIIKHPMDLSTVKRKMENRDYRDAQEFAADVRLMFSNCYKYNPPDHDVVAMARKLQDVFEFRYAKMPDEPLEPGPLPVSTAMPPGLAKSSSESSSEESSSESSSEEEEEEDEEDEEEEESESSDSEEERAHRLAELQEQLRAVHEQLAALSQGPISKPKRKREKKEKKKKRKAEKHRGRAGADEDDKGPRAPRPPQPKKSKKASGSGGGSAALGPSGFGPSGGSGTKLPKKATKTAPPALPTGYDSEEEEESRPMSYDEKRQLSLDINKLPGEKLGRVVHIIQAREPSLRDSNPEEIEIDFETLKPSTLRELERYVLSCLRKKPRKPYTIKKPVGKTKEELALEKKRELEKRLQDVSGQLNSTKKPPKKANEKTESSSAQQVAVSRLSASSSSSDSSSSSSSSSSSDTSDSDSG
T1 sequence (Q9NXF7 whole entry partner): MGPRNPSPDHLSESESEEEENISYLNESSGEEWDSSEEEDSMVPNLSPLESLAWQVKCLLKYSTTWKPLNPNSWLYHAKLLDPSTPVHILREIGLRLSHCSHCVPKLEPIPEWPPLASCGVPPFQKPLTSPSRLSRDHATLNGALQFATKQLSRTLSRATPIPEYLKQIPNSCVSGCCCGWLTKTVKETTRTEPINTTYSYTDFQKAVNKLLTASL

Turning to `CCC(=O)N1c2ccccc2[C@H](Nc2ccc(-n3cc(CNC(=O)c4ccc(Cn5c(CC)cc6c5CCCC6=O)cc4)nn3)cc2)C[C@@H]1C` [Compound 15f, 4-((2-Ethyl-4-oxo-4,5,6,7-tetrahydro-1H-indol-1-yl)methyl)-N-((1-(4-(((2S,4R)-2-methyl-1-propionyl-1,2,3,4-tetrahydroquinolin-4-yl)amino)phenyl)-1H-1,2,3-triazol-4-yl)methyl)benzamide], the “BRET Ratio” value in assay [1] is recorded as 12.43. Moreover, the inhibition at 0.1 µM in assay [2] stood at 97.2%.

With `CCNC(=O)C[C@@H]1N=C(c2ccc(SCCCCSc3ccc(C4=N[C@@H](CC(=O)NCC)c5nnc(C)n5-c5ccc(OC)cc54)cc3)cc2)c2cc(OC)ccc2-n2c(C)nnc21` [compound 1, 2,2′-((4S,4'S)-6,6′-((butane-1,4-diylbis(sulfanediyl))bis(4,1-phenylene))bis(8-methoxy-1-methyl-4H-benzo[f][1,2,4]triazolo[4,3-a][1,4]diazepine-6,4-diyl))bis(N-ethylacetamide), reference compound], in assay [1], the “BRET Ratio” value is recorded as 1.93. Moreover, the “Suppression Rate of MYC mRNA Expression (%)” value (shortened to “Suppression Rate … (%)”) in assay [2] turned out to be 61.7%.

With `CCC(=O)N1c2ccccc2[C@H](Nc2ccc(C(=O)NCC(=O)CNC(=O)c3ccc(N[C@@H]4C[C@H](C)N(C(=O)CC)c5ccccc54)cc3)cc2)C[C@@H]1C` [Compound 1l, N,N′-(2-Oxopropane-1,3-diyl)bis(4-{[(2S,4R)-2-methyl-1-propionyl-1,2,3,4-tetrahydroquinolin-4-yl]amino}benzamide)], the “BRET Ratio” value in assay [1] is 14.93. Further, in assay [2], the inhibition at 0.1 µM came to 98.5%.

For the compound `CCC(=O)N1c2ccccc2[C@H](Nc2ccc(NC(=O)CCCC(=O)Nc3ccc(N[C@@H]4C[C@H](C)N(C(=O)CC)c5ccccc54)cc3)cc2)C[C@@H]1C` [Compound 6k, N^1,N^5-Bis(4-(((2S,4R)-2-methyl-1-propionyl-1,2,3,4-tetrahydroquinolin-4-yl)amino)phenyl)glutaramide], the “BRET Ratio” value in assay [1] turned out to be 12.62. Further, the inhibition at 0.1 µM in assay [2] came to 97%.

In the case of `CCC(=O)N1c2ccccc2[C@H](Nc2ccc(NC(=O)CCCC(=O)NC3CCN(Cc4cc(O)cc(-c5c(C)noc5C)c4)CC3)cc2)C[C@@H]1C` [Compound 12c, N^1-(1-(3-(3,5-Dimethylisoxazol-4-yl)-5-hydroxybenzyl)piperidin-4-yl)-N^5-(4-(((2S,4R)-2-methyl-1-propionyl-1,2,3,4-tetrahydroquinolin-4-yl)amino)phenyl)glutaramide], the “BRET Ratio” value in assay [1] turned out to be 13.16. Besides, in assay [2], the inhibition at 0.1 µM amounted to 97.8%.

`CCC(=O)N1c2ccccc2[C@H](Nc2ccc(NC(=O)CCCC(=O)NC3CCC(N[C@@H]4C[C@H](C)N(C(=O)CC)c5ccccc54)CC3)cc2)C[C@@H]1C` (stereo partly drawn) [Compound 7o, N^1-((1R,4r)-4-(((2S,4R)-2-Methyl-1-propionyl-1,2,3,4-tetrahydroquinolin-4-yl)amino)cyclohexyl)-N^5-(4-(((2S,4R)-2-methyl-1-propionyl-1,2,3,4-tetrahydroquinolin-4-yl)amino)phenyl)glutaramide]: the “BRET Ratio” value in assay [1] was determined as 13.00. Moreover, the “Suppression Rate … (%)” value in assay [2] was 97.4%.

`CCC(=O)N1c2ccccc2[C@H](Nc2ccc(C(=O)NCc3cn(-c4ccc(N[C@@H]5C[C@H](C)N(C(=O)CC)c6ccccc65)cc4)nn3)cc2)C[C@@H]1C` [Compound 3a, 4-{[(2S,4R)-2-Methyl-1-propionyl-1,2,3,4-tetrahydroquinolin-4-yl]amino}-N-{[1-(4-{[(2S,4R)-2-methyl-1-propionyl-1,2,3,4-tetrahydroquinolin-4-yl]amino}phenyl)-1H-1,2,3-triazol-4-yl]methyl}benzamide]: the “BRET Ratio” value in assay [1] was 14.46. In assay [2], the inhibition at 0.1 µM turned out to be 98.1%.

Consider `CCC(=O)N1c2ccccc2[C@H](Nc2ccc(NC(=O)CCCC(=O)Nc3ccc(Cn4c(C(=O)OCCN(C)C)cc5c4CCCC5=O)cc3)cc2)C[C@@H]1C` [Compound 15a, 2-(Dimethylamino)ethyl 1-(4-(5-((4-(((2S,4R)-2-methyl-1-propionyl-1,2,3,4-tetrahydroquinolin-4-yl)amino)phenyl)amino)-5-oxopentanamide)benzyl)-4-oxo-4,5,6,7-tetrahydro-1H-indole-2-carboxylate], for which, in assay [1], the “BRET Ratio” value turned out to be 9.59. The “Suppression Rate … (%)” value in assay [2] is given as 97.6%.

For the compound `CCC(=O)N1c2ccccc2[C@H](Nc2ccc(NC(=O)CNC(=O)N[C@H]3CC[C@H](N[C@@H]4C[C@H](C)N(C(=O)CC)c5ccccc54)CC3)cc2)C[C@@H]1C` [Compound 8j, 2-(3-((1R,4R)-4-(((2S,4R)-2-Methyl-1-propionyl-1,2,3,4-tetrahydroquinolin-4-yl)amino)cyclohexyl)ureido)-N-(4-(((2S,4R)-2-methyl-1-propionyl-1,2,3,4-tetrahydroquinolin-4-yl)amino)phenyl)acetamide], in assay [1], the “BRET Ratio” value was determined as 11.91. Moreover, the “Suppression Rate … (%)” value in assay [2] turned out to be 97.2%.

For the compound `CCC(=O)N1c2ccccc2[C@H](Nc2ccc(C(=O)N3CCn4c(-c5ccc(N[C@@H]6C[C@H](C)N(C(=O)CC)c7ccccc76)cc5)cnc4C3)cc2)C[C@@H]1C` [Compound 3e, 1-[(2S,4R)-2-Methyl-4-({4-[3-(4-{[(2S,4R)-2-methyl-1-propionyl-1,2,3,4-tetrahydroquinolin-4-yl]amino}phenyl)-5,6,7,8-tetrahydroimidazo[1,2-a]pyrazine-7-carbonyl]phenyl}amino)-3,4-dihydroquinolin-1(2H)-yl]propan-1-one], the “BRET Ratio” value in assay [1] is reported as 9.58. The inhibition at 0.1 µM in assay [2] turned out to be 98.3%.
